14 molecules from US6841368B1, “Enzymatic production of difructose dianhydride IV from sucrose and relevant enzymes and genes coding for them” (priority 1999, dated 2005) can be followed below.

Series [1] deals with levan fructotransferase from A. ureafaciens K2032. Description: Effect of additives on the activity of levan fructotransferase. It counts as biochemical. The method, then: (§1) The purified enzyme was 51,000 in molecular weight as measured by SDS-PAGE while being measured to have a molecular weight of 96,000 by gel filtration chromatography. Thus, it was identified as being a dimer in aqueous conditions. […] Also, it was of optimal activity at 55° C. […] Whereas being inhibited by Mn^2+, Fe^2+ and Hg^2+, the activity of the enzyme was enhanced by […] and Ca^2+.

Series [2] is classed as biochemical, A. ureafaciens K2032. The method, then: A. ureafaciens K2032 was inoculated in a selective broth containing levan as a major carbon source and cultured at 30° C. for 72 hours in an incubator. Investigation into the growth and levan fructotransferase activity of the bacteria provided the knowledge that the largest enzyme activity is obtained after 10 hours of the incubation. From the culture incubated for 10 hours, the enzyme was purified (FIG. 5). In this regard, the purification was achieved by successively using acetone precipitation, ion exchange chromatography (DEAE 650-M and Mono Q), and gel filtration chromatography, resulting in producing levan fructotransferase with a specific activity of 2269 U/mg protein at an amount of 1.1 mg at a yield of 29.8% (Table 8).
as §1
The newly isolated levan fructotransferase structural gene is composed of 1566 bp which corresponds to 521 aa. The gene of the present invention has a signal sequence consisting of 99 bp (corresponding to 33 aa) at its N-terminus and therefore, the putative completed protein may be about 56 kDa in molecular weight. […] This levan fructotransferase gene is longer by 15 bases (5 amino acids) than is the levan fructotransferase gene derived from A. nicotinovorans GS-9. These two genes are 81% in the homology of amino acid sequence (76% in the homology of base sequence). Consequently, the levan fructotransferase gene of A. ureafaciens K2032 was identified as being new and its base sequence was registered in the GenBank, U.S.A. (Accession No. AF181254).

[3] abbreviates: additive concentration 1 mM, control = 100.
Where [4] appears, read: additive concentration 10 mM, control = 100.

Like-named read-outs stand apart in the source and are kept apart here.

`[Cl][Ni][Cl]` [NiCl]: the Relative activity in series [1] (setting [3]) was 74%. On to `[Cl][Mn][Cl]` [MnCl2], for which the Relative activity in series [1] (setting [3]) turned out to be 9%. For the same molecule, the “Effect on the activity of the enzyme (in words)” value (“Effect on the activity” below) in series [1] (metal ions) is “inhibited”. Consider `[Cl-].[Na+]` [NaCl], for which, in series [1], the “Effect on the activity” value is given as “enhanced” and the Relative activity is given as 125, 142%. On to `Cl.N` [NH4Cl], for which the Relative activity in series [1] (setting [3]) stood at 46%. Still for that read-out and setting: to `[Cl-].[Cl-].[Zn+2]` [ZnCl2] belongs 23%.

As to `O=C(O)CN(CCN(CC(=O)O)CC(=O)O)CC(=O)O` [EDTA, reference compound], the Relative activity in series [1] (setting [3]) is recorded as 95%; in series [1] (setting [4]) it was 94%. Regarding `[Cl][Hg][Cl]` [HgCl2], in series [1] (setting [3]), the Relative activity turned out to be 0%. The “Effect on the activity” value in series [1] (metal ions) is reported as “inhibited”. Take `[Cl-].[Cl-].[Mg+2]` [MgCl2]: the Relative activity in series [1] (setting [3]) came to 63%.

Regarding `[Cl-].[K+]` [KCl], the Relative activity in series [1] (setting [3]) stood at 89%. For the molecule `[Ca+2].[Cl-].[Cl-]` [CaCl2], the Relative activity in series [1] (setting [3]) is reported as 156%; in series [1] (setting [4]), 181%. The “Effect on the activity” value in series [1] (metal ions) is recorded as “enhanced”. As to `[Cl][Fe][Cl]` [FeCl2], the Relative activity in series [1] (setting [3]) worked out at 4%. Besides, the “Effect on the activity” value in series [1] (metal ions) was “inhibited”.

With `CCCCCCCCCCCCOS(=O)(=O)[O-].[Na+]` [SDS, sodium dodecylsulfate, reference compound], the Relative activity in series [1] (setting [3]) worked out at 101%; in series [1] (setting [4]), 32%. Take `[Cl-].[Li+]` [LiCl]: the Relative activity in series [1] (setting [3]) is listed as 92%.

B1: levan fructotransferase: enzyme purified from A. ureafaciens K2032 that produces DFA IV from levan; SEQ ID NO: 1 (protein)
chain: MTPAISRRAVLQGAGAGALALIFGGAVPPAARASAPGSLRAVYHMTPPSGWLCDPQRPVTTHGAYQLYYLHSDQNNGPGGWDHASTTDGVAFTHHGTVMPLRPDFPVWSGSAVVGTANTAGFGAGAVVALATQPTDGVRKYQEQYLYWSTDGGFTFTALPDPVIVNTDGRAATTPAEIENAEWFRDPKIHWDTARGEWVCVIGRLRYAAFYTSPNLRDWTLRRNFDYPNHALGGIECPDLFEITADDGTRHWVLAASMDAYGIGLPMTYAYWTGTWDGEQFHADDLTPQWLDWGWDWYAAVTWPSIDAPETKRLAIAWMNNWKYAARDVPTDASDGYNGQNSIVRELRLARQPGGWYTLLSTPVAALTNYVTATTTLPDRTVDGSAVLPWNGRAYEIELDIAWDTATNVGISVGRSPDGTRHTNIGKYGADLYVDRGPSDLAGYSLAPYSRAAAPIDPGARSVHLRILVDTQSVEVFVNAGHTVLSQQVHFAEGDTGISLYTDGGPAHFTGIVVREIGQAI
modifications: Arthrobacter ureafaciens K2032
Take B1: the “pH range in which the enzyme maintains its stability” value in series [2] was 4-10.5. The Specific activity in series [2] (after acetone precipitation, ion exchange and gel filtration chromatography) is on record as 2269 U/mg protein. Further, the Remnant activity in series [2] (after standing at 50° C. for 30 min) is not below 90%. For the same molecule, the Isoelectric point in series [2] (levan fructotransferase encoded by lftA) came to 5.15 pH.
